Measured values: US7329498B2, “HPV CD8+ T-cell epitopes” (Genencor International, Inc., priority 2003, dated 2008)

These sequences were tested on naive human CD8+ T-cells (assay: CD8+ I-MUNE® T-cell proliferation assay (tritiated thymidine incorporation, dendritic cells + CD8+ T-cells + anti-CD40)). Conditions: HPV E7.16 9-mer peptides, 5 μg/ml, 45 donors, 1 μg/ml anti-CD40; positive response at least 2.95 times the background.
Assay type: cell-based
Method: Fresh human peripheral blood cells were collected from humans of unknown exposure status to HPV. These cells were tested to determine antigenic epitopes in HPV 16 and 18, as described in Example 3.
Peripheral mononuclear blood cells (stored at room temperature, no older than 24 hours) were prepared for use as follows. PBMC's were isolated from buffy coat material by centrifuging over an underlay of Lymphoprep at 1000×g for 30 minutes. The interface layer was collected and washed and counted using the Cell-Dyn 3700 System (Abbott). Then, suspensions containing 10^8 PBMC's resuspended in 30 ml of AIM-V (Invitrogen) were prepared and then allowed to adhere to plastic T-75 culture flasks for two hours. The remainder of the cells were frozen at 5×10^7 cells/ml in 45% FCS (Gibco/BRL), 45% PBS w/o Ca & Mg (Mediatech), and 10% DMSO (Sigma). After the two hour PBMC incubation, non-adherent cells were removed from the flasks. The adherent cells were cultured in the flasks with 800 units/ml recombinant human GM-CSF (R&D Systems) and 100 units/ml recombinant human IL-4 (Endogen) at 37° C., 5% CO2. On day 5 of incubation, 50 units/ml recombinant human Il-1α (Endogen) and 0.2 units/ml recombinant human TNF-α were added to the cultures. Adherent and non-adherent dendritic cells were harvested, washed, and counted on day 7, following a one-hour treatment with […] mitomycin C (Sigma) and 10 mM EDTA.
Autologous CD8+ T-cells were prepared from frozen aliquots of PBMCs. After thawing and washing in DPBS, CD8+ T-cells were isolated using a commercially available CD8 negative selection kit (Dynal), according to the manufacturer's instructions. Cells were counted using the Abbott Cell-Dyn 3700 System. The purity obtained using these methods was generally found to be greater than 90%.
This Example describes the assay system used in the present invention. The basic test system is also referred to as the “I-MUNE®” assay system. The basic I-MUNE® assay system was modified as described herein to facilitate analysis of CD8+ T-cell responses. As described in greater detail below, the modifications used in the development of the present invention involved the use of CD8 negative selection beads on PBMC (i.e., instead of CD4). In addition, when CD8 cells were resuspended, […] of a 2 ug/ml anti-CD40 solution was added, before placing the DCs and peptides in the plates (the final concentration of anti-CD40 was 1 ug/ml); and 1 ul of 1 ug/ml PHA was used as a positive control, instead of tetanus toxoid.
In 96-well, round bottom plates, autologous dendritic cells and CD8+ T-cells were combined with test peptides. More specifically, in a volume of 100 μl/well, 2×10^4 dendritic cells in AIM V were combined with individual peptides (at a final peptide concentration of 5 μg/ml and a final DMSO concentration of 0.25%). After a one-hour incubation at 37° C., 5% CO2, 2×10^5 CD8+ T-cells with 2 μg/ml anti-CD40 (eBioscience; Clone 5C3 mouse IgG1, kappa) were added to the culture for a total volume of 200 μl and a final anti-CD40 concentration of 1 μg/ml per well. Negative control wells contained dendritic cells, CD8+ T-cells and 0.25% DMSO. Positive control wells contained dendritic cells, CD8+ T-cells (at the same concentrations as the test wells) and 0.25% DMSO with 5 μg/ml PHA (Sigma) (List). In some experiments, 1 ug/ml anti-IgG1 (eBioscience; Clone P3 mouse IgG1, kappa) was used as an isotype control for comparison purposes. Individual peptides were tested in duplicate or triplicate for each donor.
After 5 days of incubation at 37° C., 5% CO2, the cultures were pulsed with 0.25 μCi/well tritiated thymidine (Perkin Elmer). After a subsequent 24 hours of incubation, plates were harvested and assessed for incorporation of the tritiated thymidine (i.e., T-cell proliferation) using a Wallac Microbeta TriLux liquid scintillation counter (Perkin Elmer). Responses were averaged over the duplicate tests performed for each specimen. […]
With “DEIDGPAGO (DEIDGPAGQ; human papillomavirus) [HPV E7.16 Peptide 36, 9-mer peptide of HPV16 E7]” the “Epitope Classification” value was “Moderate (“Moderate epitopes” are those epitopes that produce results that are at least two standard deviations above the mean or three times the background)”. In the case of “DLLMGTLGI (human papillomavirus) [HPV E7.16 Peptide 81, 9-mer peptide of HPV16 E7]”, the “Epitope Classification” value is reported as “Minor (“Minor epitopes” are those that have a response rate that is at least twice the background value)”. “DLYCYEQLN (human papillomavirus) [HPV E7.16 Peptide 21, 9-mer peptide of HPV16 E7]” was tested, and the “Epitope Classification” value was “Major (a “major epitope” is defined as having a response rate at least three standard deviations above the mean background response rate)”. “DTPTLHEYM (human papillomavirus) [HPV E7.16 Peptide 4, 9-mer peptide of HPV16 E7]” was tested, and the “Epitope Classification” value was “Moderate (“Moderate epitopes” are those epitopes that produce results that are at least two standard deviations above the mean or three times the background)”. With “EDLLMGTLG (human papillomavirus) [HPV E7.16 Peptide 80, 9-mer peptide of HPV16 E7]” the “Epitope Classification” value was “Minor (“Minor epitopes” are those that have a response rate that is at least twice the background value)”. With “GQAEPDRAH (human papillomavirus) [HPV E7.16 Peptide 43, 9-mer peptide of HPV16 E7]” the “Epitope Classification” value was “Minor (“Minor epitopes” are those that have a response rate that is at least twice the background value)”. With “HEYMLDLQP (human papillomavirus) [HPV E7.16 Peptide 9, 9-mer peptide of HPV16 E7]” the “Epitope Classification” value was “Minor (“Minor epitopes” are those that have a response rate that is at least twice the background value)”. With “IRTLEDLLM (human papillomavirus) [HPV E7.16 Peptide 76, 9-mer peptide of HPV16 E7]” the “Epitope Classification” value was “Minor (“Minor epitopes” are those that have a response rate that is at least twice the background value)”. IVCPICSQK [HPV E7.16 Peptide 89] was tested, and the “Epitope Classification” value was “Minor (“Minor epitopes” are those that have a response rate that is at least twice the background value)”. With “IVTFCCKCD (human papillomavirus) [HPV E7.16 Peptide 54, 9-mer peptide of HPV16 E7]” the “Epitope Classification” value was “Minor (“Minor epitopes” are those that have a response rate that is at least twice the background value)”. For “LEDLLMGTL (human papillomavirus) [HPV E7.16 Peptide 79, 9-mer peptide of HPV16 E7]”, the “Epitope Classification” value was “Minor (“Minor epitopes” are those that have a response rate that is at least twice the background value)”. “LHEYMLDLQ (human papillomavirus) [HPV E7.16 Peptide 8, 9-mer peptide of HPV16 E7]” was tested, and the “Epitope Classification” value was “Minor (“Minor epitopes” are those that have a response rate that is at least twice the background value)”. LLMGTLGIV [HPV E7.16 Peptide 82] was tested, and the “Epitope Classification” value was “Minor (“Minor epitopes” are those that have a response rate that is at least twice the background value)”. For “LMGTLGIVC (human papillomavirus) [HPV E7.16 Peptide 83, 9-mer peptide of HPV16 E7]”, the “Epitope Classification” value was “Minor (“Minor epitopes” are those that have a response rate that is at least twice the background value)”. “MGTLGIVCP (human papillomavirus) [HPV E7.16 Peptide 84, 9-mer peptide of HPV16 E7]” was tested, and the “Epitope Classification” value was “Minor (“Minor epitopes” are those that have a response rate that is at least twice the background value)”. With “MHGDTPTLH (human papillomavirus) [HPV E7.16 Peptide 1, 9-mer peptide of HPV16 E7]” the “Epitope Classification” value was “Minor (“Minor epitopes” are those that have a response rate that is at least twice the background value)”. With “TLHEYMLDL (human papillomavirus) [HPV E7.16 Peptide 7, 9-mer peptide of HPV16 E7]” the “Epitope Classification” value was “Minor (“Minor epitopes” are those that have a response rate that is at least twice the background value)”. In the case of “TPTLHEYML (human papillomavirus) [HPV E7.16 Peptide 5, 9-mer peptide of HPV16 E7]”, the “Epitope Classification” value is reported as “Minor (“Minor epitopes” are those that have a response rate that is at least twice the background value)”.

Same assay, conditions: HPV E7.18 9-mer peptides, 5 μg/ml, 58 donors, 1 μg/ml anti-CD40; positive response at least 2.95 times the background
For “ARRAEPQRH (human papillomavirus) [HPV E7.18 Peptide 51, 9-mer peptide of HPV18 E7]”, the “Epitope Classification” value was “Minor (“Minor epitopes” are those that have a response rate that is at least twice the background value)”. “CKCEARIKL (human papillomavirus) [HPV E7.18 Peptide 66, 9-mer peptide of HPV18 E7]” was tested, and the “Epitope Classification” value was “Minor (“Minor epitopes” are those that have a response rate that is at least twice the background value)”. With “PQNEIPVDL (human papillomavirus) [HPV E7.18 Peptide 17, 9-mer peptide of HPV18 E7]” the “Epitope Classification” value was “Minor (“Minor epitopes” are those that have a response rate that is at least twice the background value)”. For “RIKLVVESS (human papillomavirus) [HPV E7.18 Peptide 71, 9-mer peptide of HPV18 E7]”, the “Epitope Classification” value was “Minor (“Minor epitopes” are those that have a response rate that is at least twice the background value)”. With “SFVCPWCAS (human papillomavirus) [HPV E7.18 Peptide 95, 9-mer peptide of HPV18 E7]” the “Epitope Classification” value was “Minor (“Minor epitopes” are those that have a response rate that is at least twice the background value)”.
